{"source": "EPA's ToxValDB 9.5 (doi:10.2903/j.efsa.2005.102r)", "key": {"Apis mellifera": {"system": "Apis mellifera", "conditions": "acute, duration: 48 hours, mortality"}, "Daphnia magna": {"system": "Daphnia magna", "conditions": "chronic/long-term; duration: 21 days"}, "Anas platyrhynchos": {"system": "Anas platyrhynchos", "conditions": "reproductive, duration: 5 days, oral, feed"}, "Folsomia candida": {"system": "Folsomia candida", "conditions": "chronic/long-term; duration: 28 days"}, "Tagia sp.": {"system": "Tagia sp.", "conditions": "acute; mortality"}, "Canidae": {"system": "Canidae", "conditions": "oral, Dog Other"}, "Gammarus pulex": {"system": "Gammarus pulex", "conditions": "chronic/long-term; duration: 28 days"}, "Colinus virginianus": {"system": "Colinus virginianus", "conditions": "oral, diet"}, "Pontoscolex corethrurus": {"system": "Pontoscolex corethrurus", "conditions": "chronic/long-term; reproduction"}, "Aphidius rhopalosiphi": {"system": "Aphidius rhopalosiphi", "test": "LR50; higher = less toxic", "conditions": "not reported; mortality"}, "Typhlodromus pyri": {"system": "Typhlodromus pyri", "test": "LR50; higher = less toxic", "conditions": "not reported; mortality"}, "[1]": {"conditions": "acute, duration: 96 hours, mortality"}}, "data": [{"smiles": "CO/N=C(/C1=NOCCO1)c1ccccc1Oc1ncnc(Oc2ccccc2Cl)c1F", "note": "[Fluoxastrobin]", "values": [{"measurement": "LD50", "setting": "Apis mellifera; dermal", "result": "> 200", "unit": "µg/piece"}, {"measurement": "LD50", "setting": "Apis mellifera; oral, unspecified", "result": "> 843", "unit": "µg/piece"}, {"measurement": "NOEC", "setting": "Daphnia magna", "result": 0.18, "unit": "mg/L"}, {"measurement": "NOEC", "setting": "Anas platyrhynchos", "result": 285, "unit": "mg/kg-day"}, {"measurement": "LC50", "setting": "Anas platyrhynchos; mortality", "result": "> 2190", "unit": "mg/kg-day"}, {"measurement": "NOEC", "setting": "Folsomia candida", "result": 5, "unit": "mg/kg"}, {"measurement": "LC50", "setting": "Tagia sp.", "result": "> 500", "unit": "mg/kg"}, {"measurement": "NOAEL", "setting": "Canidae; chronic, duration: 1 years, clinical chemistry", "result": 3, "unit": "mg/kg-day"}, {"measurement": "NOAEL", "setting": "Canidae; subchronic, duration: 90 days, body weight", "result": 30, "unit": "mg/kg-day"}, {"measurement": "NOAEL", "setting": "Canidae; subchronic, duration: 90 days, clinical chemistry", "result": 3, "unit": "mg/kg-day"}, {"measurement": "NOEC", "setting": "Gammarus pulex", "result": 0.0316, "unit": "mg/L"}, {"measurement": "LC50", "setting": "Colinus virginianus; acute, duration: 5 days, mortality", "result": "> 966", "unit": "mg/kg-day"}, {"measurement": "NOEC", "setting": "Colinus virginianus; reproduction developmental, duration: 5 days", "result": 151, "unit": "mg/kg-day"}, {"measurement": "NOEL", "setting": "Colinus virginianus; short-term, mortality", "result": 2000, "unit": "mg/kg-day"}, {"measurement": "NOEL", "setting": "Pontoscolex corethrurus", "result": 1.33, "unit": "mg/kg"}, {"measurement": "LC50", "setting": "Neomysis kadiakensis; [1]", "result": 0.0604, "unit": "µg/mL"}, {"measurement": "NOEC", "setting": "Neomysis kadiakensis; chronic/long-term, duration: 28 days", "result": 0.00061, "unit": "mg/L"}, {"measurement": "LC50", "setting": "Oncorhynchus mykiss; [1]", "result": 0.435, "unit": "µg/mL"}, {"measurement": "NOEC", "setting": "Oncorhynchus mykiss; chronic/long-term, duration: 95 days, other", "result": 0.0286, "unit": "mg/L"}, {"measurement": "LD50", "setting": "Rattus norvegicus; acute, oral, mortality", "result": "> 2000", "unit": "mg/kg"}, {"measurement": "NOAEL", "setting": "Rattus norvegicus; developmental, development", "result": "> 742", "unit": "mg/kg-day"}, {"measurement": "LR50", "setting": "Aphidius rhopalosiphi", "result": 34.1, "unit": "g/ha"}, {"measurement": "LR50", "setting": "Typhlodromus pyri", "result": 122, "unit": "g/ha"}]}]}
